Results on 1 compound are retold here after paper PMC12930396, “Positive modulators of N-methyl-D-aspartate receptor: structure–activity relationship study on steroidal C-17 and C-20 oxime ethers” (RSC Advances, 2026).

A short description of series [1]: in vitro. Conditions: pH 7.4. The protocol: Permeability was quantified using permeability coefficients (Pe) and mass retention, the latter representing the proportion of compound retained in the membrane.
Permeation experiments were conducted in polystyrene 96-well filter plates with PVDF membrane pre-coated with structured layers of phospholipids (Corning Gentest™) according to the manufacturer's instructions. Briefly, the plate was warmed to room temperature, and meanwhile, the solutions of the compounds were diluted from 10 mM DMSO stocks to TRIS–HCl buffer pH 7.4 to reach a 100 µM final concentration. The DMSO concentration in the samples was 1%. Then, 300 µL of these solutions were transferred into the donor (receiver) plate wells, and 200 µL of the (TRIS) buffer was added to the acceptor (filter) plate wells. The filter plate and receiver plate were assembled and incubated for 5 h on an orbital shaker (300 rpm). After this, the concentration of the tested substances in both the donor and acceptor compartments was determined with use of LC/MS. Liquid chromatography was performed using an ExionLC AD pump and autosampler from Sciex (Framingham, MA, USA). […] The mobile phase flow rate was 300 µL min^−1. The column Synergi Fusion-RP from Phenomenex (Torrance, CA, USA) was used and was kept at 40 °C during the analysis.

Series [2] can be described thus: Thermodynamic solubility in PBS pH 7.4. To be noted: PBS pH 7.4, 20 °C, 24 h. The series is classed as physicochemical. As for the experimental part:
The reference samples were prepared as follows: a weight corresponding to 2.5 µmol was dissolved in 250 µL of DMSO, resulting in a concentration of 10 mM stock solution. Each calibration level standard was prepared by diluting the stock solution in a mixture of PBS and acetonitrile (50 : 50 v/v). The samples for testing were prepared as follows: the volume of 1000 µL of PBS was added to the testing tube containing a weight of sample corresponding to 0.4 mM. The mixture was shaken at 1000 rpm at 20 °C for 24 h. The mixture was then filtered using a syringe polypropylene 0.45 µm filter. Samples and calibration standards are prepared using an automated system of a robotic arm (PAL-RTC, Switzerland). Then, the sample was analysed on chromatographic system (Vanquish UHPLC, Thermo Fisher Scientific, Germany) connected to the diode array detector and consequently to the charged aerosol detector (both Vanquish, Thermo Fisher Scientific, Germany), Thermo Scientific Accucore C8 (100 × 3 mm; 2.6 µm) column, using gradient elution with acetonitrile/methanol/5 mM formate buffer (pH = 3.00); flow: 1.0 cm^3 min^−1; column temperature: 40 °C; CAD temperature: 30 °C; sample volume: 5 mm^3.

The nature of series [3]: in vitro. Conditions: pH 7.4. As for the experimental part:
The reactions were terminated by the addition of four volumes of ice-cold methanol, mixed vigorously, and left at −20 °C for 1h. After that, the samples were centrifuged and the supernatants were analysed by means of ECHO-MS® System (Sciex, Framingham, MA, USA). Zero time points were prepared by adding ice-cold methanol to the mixture of the compound with cofactors before the addition of microsomes. […] Intrinsic clearance (CLint) was calculated using the following formula: [drawing 4] where V is the incubation volume per milligram of microsomal protein (µL mg^−1) and t1/2 is the microsomal half-life.
The source holds these as a separate data set.

For orientation: Papp means a coefficient for how fast a substance crosses the barrier. As a reminder, the solubility (thermodynamic) is solubility found after equilibrating the solid with the medium. The term half-life denotes the time needed for the level to fall by half in the phase considered. High values mean slow decline, low ones rapid decline.

A value given as a limit tells only on which side of the number the result lay.

Consider `CCON=C(C)C1CCC2C3CC=C4CC(OC(=O)CCCC(=O)O)CCC4(C)C3CCC12C` (stereo not drawn) [Compound 12, 20-Oxo-pregn-5-en-3β-yl hemiglutarate O-ethyloxime], for which the “PAMPA permeability Retention (mass retention)” value in series [1] (5 h, 100 µM) is 97%. Also, the Papp at 5 h, 100 µM in series [1] (PAMPA) was 3.89 ×10⁻⁶ cm/s. Also, the “Solubility PBS, pH 7.4 (thermodynamic)” value in series [2] is 361 ± 41 µM. For the same compound, the thermodynamic solubility at 24 h in series [2] (PBS, 20 °C, pH 7.4, aqueous buffer, thermodynamic from solid, read-out: Solubility PBS, pH 7.4 (thermodynamic)) is over 350 µM. The “Metabolic stability in rat liver microsomes” value in series [3] (1 h, 10 µM) is listed as “no detectable metabolism after 60 min”. The half-life at 10 µM in series [3] (rat, microsomes) is over 1 h.
